The source of these data is paper PMC9196953 (Drug development research, 1999).

As usually defined, the Ki is the dissociation constant of the complex between target and ligand, obtained from inhibition or displacement.

The assay has as its target T1, rat A1 receptors (Rattus norvegicus, UniProt P25099).
T1 construct: to A1 receptors from rat cerebral cortical membranes; from tissue; host or cells: rat cerebral cortical membranes
T1 sequence (P25099 1-326): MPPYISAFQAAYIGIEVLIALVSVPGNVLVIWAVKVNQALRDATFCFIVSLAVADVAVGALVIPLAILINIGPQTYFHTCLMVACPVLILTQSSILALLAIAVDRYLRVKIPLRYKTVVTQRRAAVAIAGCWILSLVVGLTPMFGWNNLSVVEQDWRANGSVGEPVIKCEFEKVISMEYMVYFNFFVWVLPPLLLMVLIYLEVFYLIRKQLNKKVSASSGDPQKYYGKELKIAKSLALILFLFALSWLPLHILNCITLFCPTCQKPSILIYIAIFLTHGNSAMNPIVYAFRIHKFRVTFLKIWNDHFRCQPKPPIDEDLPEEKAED
As to the kind of experiment: Displacement of [3H]R-PIA binding to A1 receptors in rat brain membranes. The settings on record: read-out: Ki rA1. As for the experimental part:
All nonradioactive compounds were initially dissolved in DMSO and diluted with buffer to the final concentration, where the amount of DMSO never exceeded 2%. Incubations were terminated by rapid filtration over Whatman GF/B filters using a Brandell cell harvester. The tubes were rinsed three times with 3 mL buffer each.
At least six different concentrations of competitor, spanning 3 orders of magnitude adjusted appropriately for the IC50 value of each compound, were used. IC50 values, calculated with the nonlinear regression method implemented in Graph-Pad Prism (San Diego, CA) were converted to apparent Ki values as described by [Linden [1982]]. Hill coefficients of the tested compounds were in the range of 0.8–1.1.
At A2B receptors, two radioligand binding assays (Table 1) were used. Ki values of xanthine derivatives were determined in displacement of binding of the non-selective radioligands […], 8 (4-(2-[7-amino-2-{furyl}{1,2,4}triazolo{2,3-a}{1,3,5}tr nzyl)-8-phenyloxyacetate-1-propyl-xanthine), at human A2B receptors expressed in HEK-293 cell membranes [[Linden and Jacobson, 1998]]. In order to evaluate selectivity, selected derivatives were subjected to standard binding assays at A1, A2A, and A3 receptors. The initial screening utilized rat brain A1/A2A receptors (with radioligands [^3H]R-PIA and [^3H]CGS-21680), and selected compounds were examined at the recombinant human subtypes (Table 1), using [^3H]CPX ([^3H]8-cyclopentyl-1,3-dipropylxanthine) and ^125I-ZM 241385, ^125I-4-(2-[7-amino-2-[2-furyl][1,2,4]triazolo[2,3-a][1,3,5]triazin-5-yl-amino]ethyl)phenol) [[Palmer et al., 1996]].
(In general: In a radioligand displacement assay an active substance lowers the binding of a labelled ligand.)
`CCCn1c(=O)c2[nH]c(-c3ccc(OCC(=O)NNC(C)=O)cc3)nc2n(CCC)c1=O` [Compound 4e, 8-[4-[(Carboxymethyl)oxy]phenyl]-1,3-di-(n-propyl)xanthine N-Acetylhydrazide]: the inhibition constant (Ki) came to 0.00651 ± 0.00124 µM.

For the compound `CCCn1c(=O)c2[nH]c(-c3ccc(OCC(=O)NNC(=O)CCC(=O)O)cc3)nc2n(CCC)c1=O` [Compound 9, 8-[4-[(Carboxymethyl)oxy]phenyl]-1,3-di-(n-propyl)xanthine N-[(3-Carboxy)-n-propionyl]hydrazide], the inhibition constant (Ki) came to 0.0733 ± 0.022 µM.

In the case of `CCCn1c(=O)c2[nH]c(-c3ccc(OCC(=O)NN4C(=O)C(C)=C(C)C4=O)cc3)nc2n(CCC)c1=O` [Compound 14, 8-[4-[(Carboxymethyl)oxy]phenyl]-1,3-di-(n-propyl)xanthine N,N-[(1,2-Dimethyl)maleyl]hydrazide], the Ki was found to be 0.0111 ± 0.0024 µM.

For `CCCn1c(=O)c2[nH]c(-c3ccc(OCC(=O)NN4C(=O)c5ccccc5C4=O)cc3)nc2n(CCC)c1=O` [Compound 21, 8-[4-[(Carboxymethyl)oxy]phenyl]-1,3-di-(n-propyl)xanthine N,N-Phthaloylhydrazide], the Ki came out at 0.0263 ± 0.0023 µM.

Regarding `CCCn1c(=O)[nH]c(=O)c2[nH]c(-c3ccc(OCC(=O)NN4C(=O)C(C)=C(C)C4=O)cc3)nc21` [Compound 15, 8-[4-[(Carboxymethyl)oxy]phenyl]-1H-3-(n-propyl)xanthine N,N-[(1,2-Dimethyl)maleyl]hydrazide], the Ki stood at 3.59 µM.
